In the experiment the test system is CD8F1 mice, subcutaneous mammary adenocarcinoma, T/C%. Nature of the experiment: NCI In Vivo Anticancer Drug Screen. Data for tumor model Mammary Adenocarcinoma CD8F1 (subcutaneous) in CD8F1. The note with it: higher = larger tumour. The procedure, abridged: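 Tumor-bearing mice, transplantable model; readout survival or tumor size; value = treated (T) / vehicle control (C).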

[1] abbreviates: endpoint: median tumor weight (est.), dose: 12.5 mg/kg/injection, schedule: Q07DX005 (ip), vehicle: suspension in saline.
The mark [2] stands for this setting: endpoint: median tumor weight (est.), dose: 25.0 mg/kg/injection, schedule: Q07DX005 (ip), vehicle: suspension in saline.
[3] abbreviates: endpoint: median tumor weight (est.), dose: 50.0 mg/kg/injection, schedule: Q07DX005 (ip), vehicle: suspension in saline.
The mark [4] stands for this setting: endpoint: median tumor weight (est.), dose: 100.0 mg/kg/injection, schedule: Q07DX005 (ip), vehicle: suspension in saline.
The mark [5] stands for this setting: endpoint: median tumor weight change, dose: 125.0 mg/kg/injection, schedule: Q01DX001 (ip), vehicle: saline with Tween-80.
[6] abbreviates: endpoint: median tumor weight change, dose: 250.0 mg/kg/injection, schedule: Q01DX001 (ip), vehicle: saline with Tween-80.
The mark [7] stands for this setting: endpoint: median tumor weight (est.), dose: 12.5 mg/kg/injection, schedule: Q07DX005 (ip), vehicle: saline.

SMILES strings stand for the structures. Several values for one entry are separate records, joined by “and”; a condition that tells them apart may be missing. Equal entries are not always repeated. Results filed as inconclusive are left out.

As for `O=C(Nc1nncs1)c1ccncc1`, the T/C was 151 % of control (endpoint: median tumor weight (est.), dose: 25.0 mg/kg/injection, schedule: Q07DX005 (ip), vehicle: saline with Tween-80) and 69 % of control (endpoint: median tumor weight (est.), dose: 800.0 mg/kg/injection, schedule: Q07DX005 (ip), vehicle: saline with Tween-80).

Consider `CC(=O)OC1C(O)C(C)OC(OC2C(OC(=O)C3CCC4C(C3)OC3(CC(OC(=O)/C=C/c5ccccc5)C(C)CO3)C43CO3)OC(C)C(O)C2OC(C)=O)C1O` (stereo unspecified), for which the T/C runs as follows: (endpoint: median tumor weight change, dose: 10.0 mg/kg/injection, schedule: Q01DX001 (ip), vehicle: distilled water + Tween-80) 107 % of control; (endpoint: median tumor weight change, dose: 40.0 mg/kg/injection, schedule: Q01DX001 (ip), vehicle: distilled water + Tween-80) 100 % of control; (endpoint: median tumor weight change, dose: 80.0 mg/kg/injection, schedule: Q01DX001 (ip), vehicle: distilled water + Tween-80) 110 % of control.

As to `c1ccc(CN2CCOC2)cc1`, the T/C runs as follows: under setting [1], 51 % of control; under setting [2], 43 % of control; under setting [3], 62 % of control; under setting [4], 87 % of control.

In the case of `CC[PH+](CC)CC[S-].CC[PH+](CC)CC[S-].[Au+].[Au+]`, the T/C was 29 % of control and 34 % of control (endpoint: median tumor weight change, dose: 100.0 mg/kg/injection, schedule: Q01DX001 (ip), vehicle: Klucel (hydroxypropylcellulose) (HPC)); 24 % of control (endpoint: median tumor weight change, dose: 200.0 mg/kg/injection, schedule: Q01DX001 (ip), vehicle: Klucel (hydroxypropylcellulose) (HPC)).

In the case of `[I][Hg][CH2]C1COC([CH2][Hg][I])CO1` (stereo unspecified), the T/C (endpoint: median tumor weight (est.), dose: 6.25 mg/kg/injection, schedule: Q07DX005 (ip), vehicle: suspension in saline) is 103 % of control; the T/C under setting [1] is 167 % of control; the T/C under setting [2] was 227 % of control; the T/C under setting [3] is 27 % of control.

Consider `CC[C@H]1CN2CCc3cc(OC)c(OC)cc3[C@@H]2C[C@@H]1C[C@@H]1c2cc(OC)c(OC)cc2CCN1CCN(CCCl)CCCl`, for which the T/C is 195 % of control (endpoint: mean tumor weight, dose: 2.5 mg/kg/injection, schedule: Q07DX005 (ip), vehicle: Klucel (hydroxypropylcellulose) (HPC)); 181 % of control (endpoint: mean tumor weight, dose: 5.0 mg/kg/injection, schedule: Q07DX005 (ip), vehicle: Klucel (hydroxypropylcellulose) (HPC)); 89 % of control (endpoint: mean tumor weight, dose: 5.0 mg/kg/injection, schedule: Q07DX006 (ip), vehicle: Klucel (hydroxypropylcellulose) (HPC)); 160 % of control (endpoint: mean tumor weight, dose: 10.0 mg/kg/injection, schedule: Q07DX005 (ip), vehicle: Klucel (hydroxypropylcellulose) (HPC)); 169 % of control (endpoint: mean tumor weight, dose: 10.0 mg/kg/injection, schedule: Q07DX006 (ip), vehicle: Klucel (hydroxypropylcellulose) (HPC)); 159 % of control (endpoint: mean tumor weight, dose: 20.0 mg/kg/injection, schedule: Q07DX006 (ip), vehicle: Klucel (hydroxypropylcellulose) (HPC)).

In the case of `CC(=O)O[C@@H]1CO[C@H]2O[C@H]3[C@@H](C(C=O)=C[C@H](O)[C@@H]4C5=C(C(C)C)CC[C@]5(C)CC[C@@]34C)[C@@]2(O)C1=O`, the T/C (endpoint: median tumor weight change, dose: 3.75 mg/kg/injection, schedule: Q01DX001 (ip), vehicle: Klucel (hydroxypropylcellulose) (HPC)) is 36 % of control; the T/C (endpoint: median tumor weight change, dose: 15.0 mg/kg/injection, schedule: Q01DX001 (ip), vehicle: Klucel (hydroxypropylcellulose) (HPC)) is 63 % of control and 74 % of control.

Regarding `CCCCCCC(=O)CC(SCC)c1ccccc1Cl` (stereo unspecified), the T/C reads like this: under setting [5], 108 % of control; under setting [6], 72 % of control; (endpoint: median tumor weight change, dose: 500.0 mg/kg/injection, schedule: Q01DX001 (ip), vehicle: saline with Tween-80) 77 % of control; (endpoint: median tumor weight change, dose: 1000.0 mg/kg/injection, schedule: Q01DX001 (ip), vehicle: saline with Tween-80) 72 % of control; (endpoint: median tumor weight change, dose: 2000.0 mg/kg/injection, schedule: Q01DX001 (ip), vehicle: saline with Tween-80) 86 % of control.

`ClC(Cl)=C(Cl)Cl`: the T/C is 157 % of control (endpoint: median tumor weight change, dose: 62.5 mg/kg/injection, schedule: Q01DX001 (ip), vehicle: other) and 191 % of control (endpoint: median tumor weight change, dose: 125.0 mg/kg/injection, schedule: Q01DX001 (ip), vehicle: other).

In the case of `CC(C)(C)c1ccc(CN2CCN(C(c3ccccc3)c3ccc(Cl)cc3)CC2)cc1` (stereo unspecified), the T/C runs as follows: (endpoint: median tumor weight change, dose: 8.0 mg/kg/injection, schedule: Q01DX001 (ip), vehicle: Klucel (hydroxypropylcellulose) (HPC)) 98 % of control; (endpoint: median tumor weight change, dose: 16.0 mg/kg/injection, schedule: Q01DX001 (ip), vehicle: Klucel (hydroxypropylcellulose) (HPC)) 96 % of control; (endpoint: median tumor weight change, dose: 32.0 mg/kg/injection, schedule: Q01DX001 (ip), vehicle: Klucel (hydroxypropylcellulose) (HPC)) 101 % of control; (endpoint: median tumor weight change, dose: 64.0 mg/kg/injection, schedule: Q01DX001 (ip), vehicle: Klucel (hydroxypropylcellulose) (HPC)) 108 % of control; (endpoint: median tumor weight change, dose: 128.0 mg/kg/injection, schedule: Q01DX001 (ip), vehicle: Klucel (hydroxypropylcellulose) (HPC)) 55 % of control; (endpoint: median tumor weight change, dose: 256.0 mg/kg/injection, schedule: Q01DX001 (ip), vehicle: Klucel (hydroxypropylcellulose) (HPC)) 84 % of control.

Take `C[n+]1c2cc(N)ccc2cc2ccc(N)cc21`: the T/C is, setting by setting: (endpoint: median tumor weight (est.), dose: 6.25 mg/kg/injection, schedule: Q07DX005 (ip), vehicle: saline) 104 % of control; under setting [7], 211 % of control.

In the case of `O=C1C(NCCO)=C(N2CC2)C(=O)C(NCCO)=C1N1CC1`, the T/C (endpoint: median tumor weight change, dose: 0.62 mg/kg/injection, schedule: Q01DX001 (ip), vehicle: saline) is 73 % of control; the T/C (endpoint: median tumor weight change, dose: 0.63 mg/kg/injection, schedule: Q01DX001 (ip), vehicle: saline) was 36 % of control; the T/C (endpoint: median tumor weight change, dose: 5.0 mg/kg/injection, schedule: Q01DX001 (ip), vehicle: saline) was 25 % of control.

Consider `CN(C)C(=O)c1cccc(COc2ccc(N3C(N)=NC(N)=NC3(C)C)cc2Cl)c1`, for which the T/C (endpoint: median tumor weight (est.), dose: 8.0 mg/kg/injection, schedule: Q07DX005 (ip), vehicle: suspension in saline) is 154 % of control; the T/C (endpoint: median tumor weight (est.), dose: 16.0 mg/kg/injection, schedule: Q07DX005 (ip), vehicle: suspension in saline) was 57 % of control; the T/C (endpoint: median tumor weight (est.), dose: 32.0 mg/kg/injection, schedule: Q07DX005 (ip), vehicle: suspension in saline) is 64 % of control.

Regarding `O=NN(CCCl)C(=O)NC1CCC(=O)NC1=O` (stereo unspecified), the T/C (endpoint: median tumor weight (est.), dose: 4.0 mg/kg/injection, schedule: Q07DX005 (ip), vehicle: saline with Tween-80) was 49 % of control; the T/C (endpoint: median tumor weight (est.), dose: 8.0 mg/kg/injection, schedule: Q07DX005 (ip), vehicle: saline with Tween-80) was 24 % of control; the T/C (endpoint: median tumor weight (est.), dose: 13.0 mg/kg/injection, schedule: Q07DX005 (ip), vehicle: saline with Tween-80) was 12 % of control; the T/C (endpoint: median tumor weight (est.), dose: 20.0 mg/kg/injection, schedule: Q07DX005 (ip), vehicle: saline with Tween-80) was 6 % of control.

In the case of `COc1ccc(/C=C/C(=O)c2cc(C(=O)O)c(OC)cc2OC)cc1OC`, the T/C was 326 % of control under setting [7]; 117 % of control (endpoint: median tumor weight (est.), dose: 25.0 mg/kg/injection, schedule: Q07DX005 (ip), vehicle: saline); 192 % of control (endpoint: median tumor weight (est.), dose: 50.0 mg/kg/injection, schedule: Q07DX005 (ip), vehicle: saline); 85 % of control under setting [3]; 84 % of control (endpoint: median tumor weight (est.), dose: 100.0 mg/kg/injection, schedule: Q07DX005 (ip), vehicle: saline); 107 % of control under setting [4]. Besides, the T/C (endpoint: median tumor weight (est.), dose: 200.0 mg/kg/injection, schedule: Q07DX005 (ip), vehicle: saline) is 42 % of control and the T/C (endpoint: median tumor weight (est.), dose: 200.0 mg/kg/injection, schedule: Q07DX005 (ip), vehicle: suspension in saline) is 53 % of control.

With `O=C(NC/C(Cl)=C/Cl)Oc1cccc2ccccc12`, the T/C is 78 % of control (endpoint: mean tumor weight, dose: 0.78 mg/kg/injection, schedule: Q07DX004 (ip), vehicle: saline); 91 % of control (endpoint: mean tumor weight, dose: 1.56 mg/kg/injection, schedule: Q07DX004 (ip), vehicle: saline); 112 % of control (endpoint: mean tumor weight, dose: 3.12 mg/kg/injection, schedule: Q07DX004 (ip), vehicle: saline); 72 % of control (endpoint: mean tumor weight, dose: 6.25 mg/kg/injection, schedule: Q07DX004 (ip), vehicle: saline); 58 % of control (endpoint: mean tumor weight, dose: 12.5 mg/kg/injection, schedule: Q07DX004 (ip), vehicle: saline).

As to `O=c1[nH]cccc1O`, the T/C under setting [5] was 60 % of control and the T/C under setting [6] is 35 % of control.

With `COC(=O)Nc1nc2ccc(C3(c4ccc(F)cc4)OCCO3)cc2[nH]1`, the T/C runs as follows: (endpoint: median tumor weight change, dose: 125.0 mg/kg/injection, schedule: Q01DX001 (ip), vehicle: saline) 99 % of control; (endpoint: median tumor weight change, dose: 125.0 mg/kg/injection, schedule: Q01DX001 (ip), vehicle: suspension in saline) 152 % of control; (endpoint: median tumor weight change, dose: 250.0 mg/kg/injection, schedule: Q01DX001 (ip), vehicle: suspension in saline) 67 % of control; (endpoint: median tumor weight change, dose: 500.0 mg/kg/injection, schedule: Q01DX001 (ip), vehicle: suspension in saline) 153 % of control; (endpoint: median tumor weight change, dose: 1000.0 mg/kg/injection, schedule: Q01DX001 (ip), vehicle: suspension in saline) 93 % of control.

`O=C(NO)c1ccccc1`: the T/C was 46 % of control under setting [2], 109 % of control under setting [3] and 293 % of control under setting [4].
